Reference: BindingDB's records for doi:10.1021/jm8001026 (University of Texas At Dallas, 2008)

Molecular target: T1, Dihydroorotate dehydrogenase (quinone), mitochondrial (Plasmodium falciparum (isolate 3D7), UniProt Q08210)
T1 sequence (Q08210 whole entry): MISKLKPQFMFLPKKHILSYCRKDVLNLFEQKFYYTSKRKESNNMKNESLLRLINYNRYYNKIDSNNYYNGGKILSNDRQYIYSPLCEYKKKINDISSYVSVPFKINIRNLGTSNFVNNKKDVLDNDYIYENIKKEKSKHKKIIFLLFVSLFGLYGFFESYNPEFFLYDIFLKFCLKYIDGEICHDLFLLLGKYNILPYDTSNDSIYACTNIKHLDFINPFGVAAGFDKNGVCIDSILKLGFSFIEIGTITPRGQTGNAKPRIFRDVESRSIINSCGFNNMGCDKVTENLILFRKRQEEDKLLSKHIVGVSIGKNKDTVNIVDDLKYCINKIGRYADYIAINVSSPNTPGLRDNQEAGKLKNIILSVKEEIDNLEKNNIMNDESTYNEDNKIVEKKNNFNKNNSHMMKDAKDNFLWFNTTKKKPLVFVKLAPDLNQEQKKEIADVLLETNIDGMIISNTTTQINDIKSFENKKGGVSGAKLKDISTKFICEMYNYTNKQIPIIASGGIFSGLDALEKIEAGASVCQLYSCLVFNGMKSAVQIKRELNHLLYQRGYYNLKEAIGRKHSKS
Assay: DHODH Inhibition Assay
Details: pH 8; 20 °C
Procedure: The assays were carried out by using a colorimetric DCIP method, which uses the colorimetric reagent 2, 6-dichlorophenolindophenol as the final electron acceptor. DCIP reduction is stoichiometrically equivalent to oxidation of dihydroorotate. Changes in absorbance were quantified on a plate reader and data were analyzed to measure the reduction of DCIP as a decrease in absorbance at 600 nm.

IC50 | Structure (SMILES)
> 100 µM | Cc1cc(Nc2ccccc2)n2ncnc2n1 [JMC521864 Compund DSM12]
> 200 µM | Cc1cc(Nc2ccc(C(N)=O)cc2)n2ncnc2n1 [4-({5-methyl-[1,2,4]triazolo[1,5-a]pyrimidin-7-yl}amino)benzamide]
